# Laboratory results reported in PubChem BioAssay (NCI).
# “And” between values parts separate entries of the source, which are not always exact repeats. Equal entries are not always repeated.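 Assay format: 96-well plates, 48-hour exposure. GI50 is the concentration that inhibits growth by half. Definition used: TGI = concentration required for complete inhibition of growth.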
# Key:
# Test in all cases: inhibition of tumour cell growth, NCI panel, 48 h
# [1] = test system: CAKI-1 renal
# [2] = test system: MDA-MB-231 breast
# [3] = test system: OVCAR-8 ovarian
# [4] = test system: HCC-2998 colon
# [5] = test system: IGROV1 ovarian
# [6] = test system: EKVX NSCLC
# [7] = test system: HL-60(TB) leukemia
# [8] = test system: SF-539 CNS
# [9] = test system: OVCAR-4 ovarian
# [10] = test system: MDA-MB-435
# [11] = test system: OVCAR-3 ovarian
# [12] = test system: A498 renal
# [13] = test system: RPMI-8226 leukemia
# [14] = test system: UACC-257 melanoma
# [15] = test system: ACHN renal
# [16] = test system: T-47D breast
# [17] = test system: CCRF-CEM leukemia
# [18] = test system: M14 melanoma
# [19] = test system: UO-31 renal
# [20] = test system: SNB-75 CNS
# [21] = test system: HOP-92 NSCLC
# [22] = test system: SN12C renal
# [23] = test system: NCI-H23 lung
# [24] = test system: U251 CNS
# [25] = test system: NCI-H460 lung
# [26] = test system: NCI/ADR-RES ovarian
# [27] = test system: KM12 colon
# [28] = test system: TK-10 renal
# [29] = test system: SW-620 colon
# [30] = test system: PC-3 prostate
# [31] = test system: NCI-H522 lung
# [32] = test system: DU-145 prostate
# [33] = test system: SR leukemia
# [34] = test system: K-562 leukemia
# [35] = test system: RXF 393 renal
# [36] = test system: MOLT-4 leukemia
# [37] = test system: MALME-3M melanoma
# [38] = test system: HOP-62 NSCLC
# [39] = test system: COLO 205 colon
# [40] = test system: SK-MEL-2 melanoma
# [41] = test system: SK-MEL-28 melanoma
# [42] = test system: HCT-15 colon
# [43] = test system: SK-MEL-5 melanoma
# [44] = test system: NCI-H226 lung
# [45] = test system: UACC-62 melanoma
# [46] = test system: LOX IMVI melanoma
# [47] = test system: OVCAR-5 ovarian
# [48] = test system: A549 NSCLC
# [49] = test system: HCT-116 colon
# [50] = test system: HS 578T breast
# [51] = test system: 786-0 renal
# [52] = test system: SF-268 CNS
# [53] = test system: HT29 colon
# [54] = test system: SNB-19 CNS
# [55] = test system: SF-295 CNS
# [56] = test system: MCF7 breast
# [57] = test system: SK-OV-3 ovarian
smiles,measurement,setting,value
Nc1nc(N)c2cc(Sc3ccc(Cl)cc3)ccc2n1,GI50,[1],3.25 µM
same,TGI,[1],16.1 µM
same,GI50,[2],1.72 µM
same,TGI,[2],4.21 µM
same,GI50,[3],0.961 µM
same,TGI,[3],2.61 µM
same,GI50,[4],1.08 µM
same,TGI,[4],2.43 µM
same,GI50,[5],0.874 µM
same,TGI,[5],18.7 µM
same,GI50,[6],1.66 µM
same,TGI,[6],17.6 µM
same,GI50,[7],0.6 µM
same,TGI,[7],2.47 µM
same,GI50,[8],3.1 µM
same,TGI,[8],22.3 µM
same,GI50,[9],3.91 µM
same,TGI,[9],18.9 µM
same,GI50,[10],0.403 µM
same,TGI,[10],1.91 µM
same,GI50,[11],3.5 µM
same,TGI,[11],12.6 µM
same,GI50,[12],3.19 µM
same,TGI,[12],19 µM
same,GI50,[13],1.95 µM
same,TGI,[13],4.99 µM
same,GI50,[14],1.41 µM
same,TGI,[14],5.72 µM
same,GI50,[15],0.666 µM
same,TGI,[15],16.4 µM
same,GI50,[16],1.61 µM
same,TGI,[16],3.33 µM
same,GI50,[17],0.815 µM
same,TGI,[17],17.4 µM
same,GI50,[18],0.535 µM
same,TGI,[18],1.98 µM
same,GI50,[19],2.43 µM
same,TGI,[19],16.1 µM
same,GI50,[20],5.89 µM
same,TGI,[20],18.7 µM
same,GI50,[21],1.51 µM
same,TGI,[21],7 µM
same,GI50,[22],2.91 µM
same,TGI,[22],17.9 µM
same,GI50,[23],1.38 µM
same,TGI,[23],15.6 µM
same,GI50,[24],0.526 µM
same,TGI,[24],1.99 µM
same,GI50,[25],0.314 µM
same,TGI,[25],11.9 µM
same,GI50,[26],0.793 µM
same,TGI,[26],16.1 µM
same,GI50,[27],1.34 µM
same,TGI,[27],4.32 µM
same,GI50,[28],4.91 µM
same,TGI,[28],17.2 µM
same,GI50,[29],0.306 µM
same,TGI,[29],1.63 µM
same,GI50,[30],0.592 µM
same,TGI,[30],13.8 µM
same,GI50,[31],1.35 µM
same,TGI,[31],3.87 µM
same,GI50,[32],1.9 µM
same,TGI,[32],14.6 µM
same,GI50,[33],1.37 µM
same,TGI,[33],5.43 µM
same,GI50,[34],0.286 µM
same,TGI,[34],1.86 µM
same,GI50,[35],1.03 µM
same,TGI,[35],7.78 µM
same,GI50,[36],1.9 µM
same,TGI,[36],11.1 µM
same,GI50,[37],1.25 µM
same,TGI,[37],3.27 µM
same,GI50,[38],1.49 µM
same,TGI,[38],14.9 µM
same,GI50,[39],1.28 µM
same,TGI,[39],2.83 µM
same,GI50,[40],2.23 µM
same,TGI,[40],5.53 µM
same,GI50,[41],2.68 µM
same,TGI,[41],8.05 µM
same,GI50,[42],0.491 µM
same,TGI,[42],14.9 µM
same,GI50,[43],0.762 µM
same,TGI,[43],2.06 µM
same,GI50,[44],9.71 µM
same,TGI,[44],23.4 µM
same,GI50,[45],0.795 µM
same,TGI,[45],14.5 µM
same,GI50,[46],0.35 µM
same,TGI,[46],4.07 µM
same,GI50,[47],2.05 µM
same,TGI,[47],17.5 µM
same,GI50,[48],0.254 µM
same,TGI,[48],12.9 µM
same,GI50,[49],0.327 µM
same,TGI,[49],1.39 µM
same,GI50,[50],1.72 µM
same,TGI,[50],12.4 µM
same,GI50,[51],0.582 µM
same,TGI,[51],2.04 µM
same,GI50,[52],0.898 µM
same,TGI,[52],18 µM
same,GI50,[53],0.516 µM
same,TGI,[53],2.4 µM
same,GI50,[54],3.71 µM
same,TGI,[54],20.8 µM
same,GI50,[55],0.63 µM
same,TGI,[55],15.2 µM
same,GI50,[56],1.16 µM
same,TGI,[56],2.79 µM
CC1(C)CC[C@]2(CO)CC[C@]3(C)C(=CC[C@@H]4[C@@]5(C)CC[C@H](NCO)C(C)(C)[C@@H]5CC[C@]43C)[C@@H]2C1,GI50,[1],1.85 µM
same,TGI,[1],3.52 µM
same,GI50,[12],1.38 µM
same,TGI,[12],2.83 µM
same,GI50,[13],1.75 µM
same,TGI,[13],4.57 µM
same,GI50,[17],2.04 µM
same,TGI,[17],5.94 µM
same,GI50,[57],3.29 µM
same,TGI,[57],9.06 µM
same,GI50,[36],1.91 µM
same,TGI,[36],5.1 µM
same,GI50,[44],2.26 µM
same,TGI,[44],5.73 µM
same,GI50,[52],2.39 µM
same,TGI,[52],6.22 µM
N#CC1(C#N)C2C=CC(C3CC=CC32)C1(C#N)C#N (stereo unspecified),GI50,[1],8.5 µM
same,TGI,[1],3.72 µM and 18.5 µM
same,TGI,[2],17.2 µM
same,TGI,[4],> 50 µM
same,TGI,[5],16.5 µM
same,TGI,[6],24 µM
same,TGI,[7],2.87 µM
same,TGI,[8],17.2 µM
same,GI50,[9],9.34 µM
same,TGI,[9],9.16 µM and 18.7 µM
same,GI50,[10],9.78 µM
same,TGI,[10],18.8 µM
same,GI50,[11],6.81 µM
same,TGI,[11],5.1 µM and 14.5 µM
same,TGI,[12],16.9 µM
same,GI50,[13],8.86 µM
same,TGI,[13],4.89 µM and 21.1 µM
same,TGI,[14],21 µM
same,GI50,[15],8.44 µM
same,TGI,[15],7.09 µM and 15.3 µM
same,GI50,[16],2.78 µM
same,TGI,[16],8.65 µM and 13.2 µM
same,TGI,[17],3.43 µM
same,GI50,[18],8.72 µM
same,TGI,[18],3.74 µM and 16 µM
same,GI50,[19],1.07 µM
same,TGI,[19],3.67 µM and 1.85 µM
same,TGI,[21],14.8 µM
same,TGI,[22],18.4 µM
same,TGI,[23],19.8 µM
same,TGI,[24],17.6 µM
same,TGI,[25],> 50 µM
same,TGI,[26],33.4 µM
same,TGI,[57],> 50 µM
same,TGI,[28],3.61 µM
same,GI50,[29],2.64 µM
same,TGI,[29],5.03 µM and 22.6 µM
same,TGI,[30],16.2 µM
same,TGI,[31],3.18 µM
same,TGI,[32],16.7 µM
same,GI50,[33],7.6 µM
same,TGI,[33],7.12 µM and 17.6 µM
same,GI50,[34],1.01 µM
same,TGI,[34],5.83 µM and 3.38 µM
same,TGI,[35],8.29 µM and 13.4 µM
same,GI50,[36],1.2 µM
same,TGI,[36],3.5 µM and 3.55 µM
same,GI50,[37],6.13 µM
same,TGI,[37],6.16 µM and 13.1 µM
same,TGI,[38],33.3 µM
same,GI50,[39],5.5 µM
same,TGI,[39],4.3 µM and 13.5 µM
same,TGI,[40],32.1 µM
same,TGI,[41],21.6 µM
same,GI50,[42],13.2 µM
same,TGI,[42],4.17 µM and 35.9 µM
same,GI50,[43],8.61 µM
same,TGI,[43],15.6 µM
same,TGI,[44],> 50 µM
same,TGI,[45],16.9 µM
same,TGI,[46],18.6 µM
same,TGI,[47],16.8 µM
same,TGI,[48],21 µM
same,GI50,[49],7.85 µM
same,TGI,[49],3.4 µM and 15.7 µM
same,TGI,[50],> 50 µM
same,GI50,[51],2.19 µM
same,TGI,[51],3.36 µM and 7.76 µM
same,TGI,[52],22.6 µM
same,TGI,[53],21.9 µM
same,TGI,[54],> 50 µM
same,TGI,[55],> 50 µM
Cl.Fc1c[c-]c(-c2ccccn2)c(F)c1.[Pt].c1ccc([PH+](c2ccccc2)c2ccccc2[PH+](c2ccccc2)c2ccccc2)cc1,GI50,[7],0.0395 µM
same,TGI,[7],0.321 µM
same,GI50,[10],0.0825 µM
same,TGI,[10],0.268 µM
same,GI50,[11],0.0629 µM
same,TGI,[11],0.211 µM
same,GI50,[12],0.0493 µM
same,TGI,[12],0.215 µM
same,GI50,[14],0.107 µM
same,TGI,[14],0.698 µM
same,GI50,[15],0.157 µM
same,TGI,[15],0.46 µM
same,GI50,[17],0.078 µM
same,TGI,[17],1.09 µM
same,GI50,[57],0.0883 µM
same,TGI,[57],0.64 µM
same,GI50,[28],0.141 µM
same,TGI,[28],0.689 µM
same,GI50,[32],0.0677 µM
same,TGI,[32],0.334 µM
same,GI50,[35],0.137 µM
same,TGI,[35],0.296 µM
same,GI50,[38],0.0655 µM
same,TGI,[38],0.32 µM
same,GI50,[47],0.14 µM
same,TGI,[47],0.415 µM
